These are literature values, as cited in article PMC10146281, “Pharmacokinetic and Pharmacodynamic Characteristics of Pelubiprofen Tromethamine vs. Pelubiprofen in Healthy Subjects” (Pharmaceutics, 2023).

Read-outs that look alike come from different tables or passages of the source.

For this series the following is noted: cited from earlier work.

For `CC(C)Cc1ccc(C(C)C(=O)O)cc1.N=C(N)NCCC[C@H](N)C(=O)O` (centres unmarked) [ibuprofen arginate], the Cmax result (in vivo) was “approximately 30 mg/L”. Take `CC(C)Cc1ccc(C(C)C(=O)O)cc1` (centres unmarked) [ibuprofen]: the Cmax result was “approximately 24 mg/L”.
